The source of these data is paper PMC11881016, “Deep‐Learning‐Based Approaches for Rational Design of Stapled Peptides With High Antimicrobial Activity and Stability” (Microbial Biotechnology, 2025).

The test system of assay [1] is Escherichia coli (E. coli, ATCC25922). In kind it is cell-based. The procedure:
(§1) Escherichia coli ( E. coli , ATCC25922), Klebsiella pneumoniae ( K. pneumoniae , ATCC10031), Staphylococcus aureus ( S. aureus , ATCC6538P), Pseudomonas aeruginosa ( P. aeruginosa , ATCC27853) and methicillin‐resistant Staphylococcus aureus (MRSA) were used to evaluate the antimicrobial activity of the peptides and were purchased from BeNa Culture Collection.
(§2) The MICs of the peptides in vitro were determined using the broth microdilution method with minor modifications (Wiegand et al. [2008]). Peptides were incubated with bacteria (about 5 × 10^5 CFU/mL), and PBS was used as the negative control. After 18–24 h of incubation at 37°C, the bacteria were checked for growth by recording the values at OD600, with three replicates in each group.

The subject of assay [2] is Staphylococcus aureus (S. aureus, ATCC6538P). In kind it is cell-based. Particulars: for MIC S. aureus: ATCC6538; for increase of antimicrobial activity against S. aureus: stapled peptide compared to its linear peptide. The procedure: as §1, §2
For assay [3], the system named is Klebsiella pneumoniae (K. pneumoniae, ATCC10031). The class given is cell-based. The note with it: for MIC K. pneumoniae: ATCC10031; for increase of antimicrobial activity against K. pneumoniae: stapled peptide compared to its linear peptide. The procedure:
as §1, §2

Assay [4] deals with methicillin‐resistant Staphylococcus aureus (MRSA). In kind it is cell-based. Particulars: for MIC MRSA: methicillin‐resistant; for increase of antibacterial activity against MRSA: stapled peptide compared to its linear peptide. The protocol: as §1, §2
Assay [5] relates to Pseudomonas aeruginosa (P. aeruginosa, ATCC27853). In kind it is cell-based. The protocol:
as §1, §2

For another assay, the system named is any bacteria. The assay is described as follows: Wet experiment result (antimicrobial activity of the synthesised peptides, positive/negative). Particulars: experiment data set (Supplement S12). The class given is cell-based. The source says:
Supplement MBT2-18-e70121-s002.doc, table 9 | column: Wet Exp. Result

Assay [6] relates to gram‐positive and gram‐negative bacteria. The note with it: external independent data set; ref Hu et al. ([2022]); cited from earlier work. From the text:
TABLE 3 Prediction results of external independent data set using 10 models. | column: Result ^a

≈ marks a conversion by molar mass, not a printed value. *1 amine or outer side, *2 acyl side, *3 side chain or, on linkers, in order; H or OH if unused. Where a SMILES comes first, the peptide text is derived from it. Bridges are numbered along the chain shown (N, C = ends). Where no end group is shown, it is not given here. [ ]: non-standard residue; d: D form. X1 = O=C([C@H](CCCCNCC=[*:3])N[*:1])[*:2] A value given as a limit tells only on which side of the number the result lay.

Take `CC[C@H](C)[C@H](NC(=O)[C@@H](N)CCCNC(=N)N)C(=O)N[C@@H](CC(C)C)C(=O)N[C@@H](CCCNC(=N)N)C(=O)N[C@@H](CCCCN)C(=O)N[C@@H](CC(C)C)C(=O)N[C@@H](CCCNC(=N)N)C(=O)N[C@H]1CCCCNC/C=C/CNCCCC[C@@H](C(=O)O)NC(=O)[C@H](CC(C)C)NC(=O)[C@H](Cc2ccccc2)NC(=O)[C@H](CCCCN)NC1=O` [GAN‐P2‐2‐St] (H-RILRKLR[X1]KFL[X1]-OH; staple (E) 8-12): the “MIC E. coli” value in assay [1] came to 16 µg/mL (≈ 9.69 µM). Besides, in assay [2], the “MIC S. aureus” value turned out to be 2 µg/mL (≈ 1.21 µM) and the “increase of antimicrobial activity against S. aureus” value is reported as 4 fold. Besides, in assay [3], the “MIC K. pneumoniae” value was found to be 1 µg/mL (≈ 0.606 µM) and the “increase of antimicrobial activity against K. pneumoniae” value (“increase … against K. pneumoniae” for short) was 2–4 fold. Moreover, in assay [4], the “MIC MRSA” value is 8 µg/mL (≈ 4.85 µM) and the “increase of antibacterial activity against MRSA” value (“increase … against MRSA” for short) came out at 16 fold. In assay [5], the “MIC P. aeruginosa” value was 32 µg/mL (≈ 19.4 µM). The “Wet Exp. Result” value with any bacteria is “Positive”.
On to `CC[C@H](C)[C@H](NC(=O)[C@@H](N)CCCNC(=N)N)C(=O)N[C@@H](CC(C)C)C(=O)N[C@@H](CCCNC(=N)N)C(=O)N[C@@H](CCCCN)C(=O)N[C@@H](CC(C)C)C(=O)N[C@@H](CCCCN)C(=O)N[C@H]1CCCCNC/C=C/CNCCCC[C@@H](C(=O)O)NC(=O)[C@H](CC(C)C)NC(=O)[C@H](Cc2ccccc2)NC(=O)[C@H](CCCNC(=N)N)NC1=O` [GAN‐P2‐3‐St] (H-RILRKLK[X1]RFL[X1]-OH; staple (E) 8-12), for which the “MIC E. coli” value in assay [1] came out at 16 µg/mL (≈ 9.69 µM). In assay [2], the “MIC S. aureus” value was found to be 2 µg/mL (≈ 1.21 µM) and the “increase of antimicrobial activity against S. aureus” value is 4 fold. Also, in assay [3], the “MIC K. pneumoniae” value was 1 µg/mL (≈ 0.606 µM) and the “increase … against K. pneumoniae” value is 2–4 fold. Besides, in assay [4], the “MIC MRSA” value was 8 µg/mL (≈ 4.85 µM) and the “increase … against MRSA” value is recorded as 16 fold. For the same molecule, the “MIC P. aeruginosa” value in assay [5] is 32 µg/mL (≈ 19.4 µM). The “Wet Exp. Result” value with any bacteria is “Positive”.
Regarding `CC[C@H](C)[C@H](NC(=O)[C@@H](N)CCCNC(=N)N)C(=O)N[C@@H](CC(C)C)C(=O)N[C@@H](CCCNC(=N)N)C(=O)N[C@@H](CCCCN)C(=O)N[C@@H](CC(C)C)C(=O)N[C@@H](CCCNC(=N)N)C(=O)N[C@H]1CCCCNC/C=C/CNCCCC[C@@H](C(=O)O)NC(=O)[C@H](CC(C)C)NC(=O)[C@H](Cc2ccccc2)NC(=O)[C@H](CCCNC(=N)N)NC1=O` [GAN‐P2‐4‐St] (H-RILRKLR[X1]RFL[X1]-OH; staple (E) 8-12), the “MIC E. coli” value in assay [1] was 16 µg/mL (≈ 9.53 µM). In addition, in assay [2], the “MIC S. aureus” value was 4 µg/mL (≈ 2.38 µM). Moreover, in assay [3], the “MIC K. pneumoniae” value amounted to 2 µg/mL (≈ 1.19 µM) and the “increase … against K. pneumoniae” value is 2–4 fold. Further, in assay [4], the “MIC MRSA” value stood at 16 µg/mL (≈ 9.53 µM) and the “increase … against MRSA” value is 4 fold. In addition, in assay [5], the “MIC P. aeruginosa” value worked out at 16 µg/mL (≈ 9.53 µM). Moreover, in the assay on any bacteria, the “Wet Exp. Result” value is recorded as “Positive”.
As to `CC[C@H](C)[C@H](NC(=O)CN)C(=O)NCC(=O)N[C@@H](CCCCN)C(=O)N[C@@H](Cc1ccccc1)C(=O)N[C@@H](CC(C)C)C(=O)N[C@@H](Cc1c[nH]cn1)C(=O)N[C@@H](CO)C(=O)N[C@@H](C)C(=O)N[C@@H](CCCCN)C(=O)N[C@@H](CCCCN)C(=O)N[C@@H](Cc1ccccc1)C(=O)NCC(=O)N[C@@H](CCCCN)C(=O)N[C@H]1CSSC[C@@H](C(=O)N[C@H](C(=O)N[C@@H](CC(C)C)C(=O)N[C@@H](CC(N)=O)C(=O)N[C@@H](CO)C(=O)O)[C@@H](C)CC)NC(=O)CNC(=O)[C@H](C(C)C)NC(=O)[C@H](Cc2ccccc2)NC1=O` [Mag2(i + 4)14Dc] (H-GIGKFLHSAKKFGKCFVGCILNS-OH; disulfide 15-19), the “MIC E. coli” value in assay [1] came to 64 µg/mL. Moreover, the “MIC S. aureus” value in assay [2] came out at 16 µg/mL. In addition, in assay [3], the “MIC K. pneumoniae” value stood at 32 µg/mL. In assay [5], the “MIC P. aeruginosa” value came to 64 µg/mL.
With `CC[C@H](C)[C@H](NC(=O)CN)C(=O)NCC(=O)N[C@@H](CCCCN)C(=O)N[C@@H](Cc1ccccc1)C(=O)N[C@@H](CC(C)C)C(=O)N[C@@H](Cc1c[nH]cn1)C(=O)N[C@@H](CO)C(=O)N[C@@H](C)C(=O)N[C@@H](CCCCN)C(=O)N[C@@H](CCCCN)C(=O)N[C@@H](Cc1ccccc1)C(=O)NCC(=O)N[C@@H](CCCCN)C(=O)N[C@@H](C)C(=O)N[C@H]1CSSC[C@@H](C(=O)N[C@@H](CC(C)C)C(=O)N[C@@H](CC(N)=O)C(=O)N[C@@H](CO)C(=O)O)NC(=O)[C@H](CCC(=O)O)NC(=O)CNC(=O)[C@H](C(C)C)NC1=O` [Mag2(i + 4)15Dc] (H-GIGKFLHSAKKFGKACVGECLNS-OH; disulfide 16-20), the “MIC E. coli” value in assay [1] was found to be 512 µg/mL. For the same molecule, in assay [2], the “MIC S. aureus” value is above 512 µg/mL. In assay [3], the “MIC K. pneumoniae” value came to 256 µg/mL. The “MIC P. aeruginosa” value in assay [5] is above 512 µg/mL.
For the molecule “FFGKVLⓀLIRⓀIF‐NH2 (sidechain bridge or staple) [LS‐DAS, lysine‐stapled AMP of the external independent data set from Hu et al. ([2022])]”, in assay [6], the “Result (stapled AMP with high antimicrobial activity in the experiment)” value was “Positive”.
For the molecule “FFGSVLⓀLIPⓀIL‐NH2 (sidechain bridge or staple) [LS‐PTa, lysine‐stapled AMP of the external independent data set from Hu et al. ([2022])]”, in assay [6], the “Result (stapled AMP with high antimicrobial activity in the experiment)” value is reported as “Positive”.
In the case of “GFKDLLKGAAⓀALVⓀTVLF‐NH2 (sidechain bridge or staple) [LS‐AP1, lysine‐stapled AMP of the external independent data set from Hu et al. ([2022])]”, the “Result (stapled AMP with high antimicrobial activity in the experiment)” value in assay [6] was “Positive”.
“GFKDLLⓀGAAⓀALVKTVLF‐NH2 (sidechain bridge or staple) [LS‐AP2, lysine‐stapled AMP of the external independent data set from Hu et al. ([2022])]”: the “Result (stapled AMP with high antimicrobial activity in the experiment)” value in assay [6] is given as “Positive”.
On to “GFⓀDLLⓀGAAKALVKTVLF‐NH2 (sidechain bridge or staple) [LS‐AP3, lysine‐stapled AMP of the external independent data set from Hu et al. ([2022])]”, for which the “Result (stapled AMP with high antimicrobial activity in the experiment)” value in assay [6] is “Positive”.
Consider “PKINLⓀILGⓀILRLAAAFK‐NH2 (sidechain bridge or staple) [LS‐PaD1, lysine‐stapled AMP of the external independent data set from Hu et al. ([2022])]”, for which the “Result (stapled AMP with high antimicrobial activity in the experiment)” value in assay [6] is on record as “Positive”.
For “PⓀINLⓀILGKILRLAAAFK‐NH2 (sidechain bridge or staple) [LS‐PaD2, lysine‐stapled AMP of the external independent data set from Hu et al. ([2022])]”, the “Result (stapled AMP with high antimicrobial activity in the experiment)” value in assay [6] is on record as “Positive”.
With RILRKLKKRFLK [GAN‐P2‐3], the “MIC E. coli” value in assay [1] was 16 µg/mL. The “MIC S. aureus” value in assay [2] came out at 8 µg/mL. Besides, the “MIC K. pneumoniae” value in assay [3] is 4 µg/mL. For the same molecule, the “MIC MRSA” value in assay [4] came out at 128 µg/mL. Moreover, in assay [5], the “MIC P. aeruginosa” value was determined as 32 µg/mL.
As to RILRKLRKKFLK [GAN‐P2‐2], the “MIC E. coli” value in assay [1] is 8 µg/mL. Moreover, in assay [2], the “MIC S. aureus” value came out at 8 µg/mL. Also, the “MIC K. pneumoniae” value in assay [3] is 4 µg/mL. For the same molecule, in assay [4], the “MIC MRSA” value was 128 µg/mL. For the same molecule, the “MIC P. aeruginosa” value in assay [5] came to 16 µg/mL.
For RILRKLRKRFLK [GAN‐P2‐4], the “MIC E. coli” value in assay [1] amounted to 8 µg/mL. In addition, in assay [2], the “MIC S. aureus” value stood at 8 µg/mL. In addition, in assay [3], the “MIC K. pneumoniae” value stood at 4 µg/mL. The “MIC MRSA” value in assay [4] is 64 µg/mL. The “MIC P. aeruginosa” value in assay [5] turned out to be 32 µg/mL.
For the molecule “VKRFKⓀFFRⓀFKKFV‐NH2 (sidechain bridge or staple) [LS‐BF1, lysine‐stapled AMP of the external independent data set from Hu et al. ([2022])]”, the “Result (stapled AMP with high antimicrobial activity in the experiment)” value in assay [6] is “Positive”.
As to “VⓀRFKⓀFFRKFKKFV‐NH2 (sidechain bridge or staple) [LS‐BF2, lysine‐stapled AMP of the external independent data set from Hu et al. ([2022])]”, the “Result (stapled AMP with high antimicrobial activity in the experiment)” value in assay [6] is reported as “Positive”.
In the case of WKRIAKRLKKKLGRAKLF [VAE‐P3‐3], the “MIC E. coli” value in assay [1] was 16 µg/mL. In addition, the “MIC S. aureus” value in assay [2] turned out to be 4 µg/mL. For the same molecule, in assay [3], the “MIC K. pneumoniae” value stood at 2 µg/mL. The “MIC MRSA” value in assay [4] stood at 16 µg/mL. The “MIC P. aeruginosa” value in assay [5] turned out to be 16 µg/mL.
WKRIARKLKRKLGRAKLF [VAE‐P3‐5]: the “MIC E. coli” value in assay [1] was 16 µg/mL. Further, the “MIC S. aureus” value in assay [2] came out at 2 µg/mL. In assay [3], the “MIC K. pneumoniae” value worked out at 1 µg/mL. The “MIC MRSA” value in assay [4] amounted to 8 µg/mL. The “MIC P. aeruginosa” value in assay [5] was determined as 4 µg/mL.
